Starred links: 1 amine or outer side, 2 acyl side, 3 side chain; linkers in the order of their positions; H or OH if unused. Suc = O=C(CCC(=O)[*:2])[*:1]
What was measured:
[1] = test system: cervical carcinoma HeLa cells; format: cell-based, human; conditions: MTT, 72 h incubation; read-out: IC50 (μM) ± SD Hela
Description: (§1) All cell lines were purchased from the American Type Culture Collection (ATCC, Manassas, VA)[29].
(§2) 24 h later, triplicate wells were treated with media and the compounds being tested. After 72 h of incubation at 37 °C in 5% CO2, the drug-containing medium was removed and replaced with […] of fresh medium containing 5 mg/mL MTT solution. After 4 h of incubation, the medium with MTT was removed, and […] of dimethyl sulfoxide (DMSO) was added to each well. The plates were gently agitated until the purple formazan crystals were dissolved, and the OD490 values were determined using a microplate reader (MK3, Thermo, Germany). The data were calculated and plotted as the percent viability compared to the control.

[2] = test system: gastric adenocarcinoma SGC-7901 cells; format: cell-based, human; conditions: MTT, 72 h incubation; read-out: IC50 (μM) ± SD SGC-7901
Description: as §1, §2

[3] = test system: lung adenocarcinoma A549 cells; format: cell-based, human; conditions: MTT, 72 h incubation; read-out: IC50 (μM) ± SD A549
Description: as §1, §2

[4] = test system: mouse fibroblasts L929 cells; format: cell-based; conditions: MTT, 72 h incubation, normal cells; read-out: IC50 (μM) ± SD L929
Description: as §1, §2

[5] = Physiological stability by HPLC analysis; format: physicochemical; conditions: 5 µM; water, PBS, and cell culture fluid; 72 h incubation, room temperature
Description: Figure 4. Stabilities of Deac-SS-Biotin (9, 5 µM) in water, and PBS cell culture fluid were investigated by HPLC analysis. (A) HPLC analysis of Deac-SS-Biotin (9) in water after incubation for and 72 h; (B) HPLC analysis of Deac-SS-Biotin (9) in PBS after incubation for and 72 h; (C) HPLC analysis of Deac-SS-Biotin (9) in cell culture fluid after incubation for and 72 h.
To 8 ml of water, PBS, or cell culture fluid, 2 ml of DMSO stock solution of Deac-SS-Biotin was added. The mixture was incubated with gentle shaking for 72 h at room temperature during which the mixture was measured by HPLC spectra.

[6] = In vitro release of Deac from biotin conjugates with DTT (HPLC); format: physicochemical; conditions: 5 μM conjugate
Description: To investigate the mechanism of GSH-triggered drug release, the in vitro drug release profiles of Deac-SS-Biotin (9) and Deac-Biotin (10) were investigated using DTT (Glutathione mimetic). As shown in Figure 5(A), almost none of Deac was released from Deac-SS-Biotin (9) within 24 h in blank PBS (pH 7.2–7.4, without DTT), and more than 70% of Deac was released within 8 h in the presence of 5, 10, and 20 μM DTT. By contrast, there was negligible Deac (<1.0%) released from Deac-Biotin (10) after 24 h incubation in the presence or absence of 20 μM DTT (Figure 5(B)). […] Furthermore, Deac release from the Deac-SS-Biotin (9) at 10 μM DTT was also investigated by HPLC analysis (Figure 5(C)). Free Deac-SS-Biotin (9) was eluted at 10.8 min in HPLC chromatogram. As 10 μM DTT was added to Deac-SS-Biotin (9), it was sheared by DTT. As chemical reaction involved, this scission was subjected to intramolecular cyclisation, followed by ring-forming condensation, resulting in the liberation of Deac. The peak at 14.3 min appeared accompanied by the disappearance of Deac-SS-Biotin (9), and well-matched with free Deac.
Figure 5. In vitro release of Deac from prodrugs. (A) Release profiles of Deac from Deac-SS-Biotin (9, 5 μM) with 0 μM, 5 μM, 10 μM and 20 μM DTT in PBS (pH 7.2–7.4) (n = 3). (B) Release profiles of Deac from Deac-Biotin (10, 5 μM) with 0 μM, 5 μM, 10 μM and 20 μM DTT in PBS (pH 7.2–7.4) (n = 3). (C) HPLC spectra of Deac-SS-Biotin (9, 5 μM) with 10 μM DTT at 0 and 24 h.
The release of Deac from Deac-SS-Biotin was studied in PBS (pH 7.2–7.4) containing 20% DMSO with 0, 5, 10, or 20 μM, dithiothreitol (DTT), respectively. Briefly, biotin-conjugates (5 μM) were incubated in 10 ml of release medium at 37 °C. At timed intervals, 0.1 ml of sample was withdrawn, and the content of Deac, Deac-Biotin, and Deac-SS-Biotin was determined by HPLC (HPLC-LC-20AT, Shimadzu using SPD-20A UV as the detector, C18 (4.6 × 250 mm, […]) as HPLC analysis column. Method: gradient: 45% methanol in water as mobile elution, flow rate: 1.0 ml min^-1). The UV detector was kept at 254 nm.

[7] = test system: A549 cells; assay: Cytotoxicity in A549 cells in the presence of biotin (biotin receptor competition); format: cell-based, human
Description: To explore the contribution of biotin receptor to the transport of biotin conjugates, Deac-SS-Biotin (9) and biotin were evaluated for the antiproliferative activity against A549 cells.
Figure 6. In vitro cytotoxicity of biotin, Deac (13), and Deac-SS-Biotin (9) in A549 cells. Cytotoxicity of biotin, Deac + biotin, and Deac-SS-Biotin + biotin in A549 cells (n = 3).
as §2

[8] = biological target: porcine brain tubulin (Sus scrofa, UniProt P02550+P02554)
Sequence of porcine brain tubulin (P02554 whole entry): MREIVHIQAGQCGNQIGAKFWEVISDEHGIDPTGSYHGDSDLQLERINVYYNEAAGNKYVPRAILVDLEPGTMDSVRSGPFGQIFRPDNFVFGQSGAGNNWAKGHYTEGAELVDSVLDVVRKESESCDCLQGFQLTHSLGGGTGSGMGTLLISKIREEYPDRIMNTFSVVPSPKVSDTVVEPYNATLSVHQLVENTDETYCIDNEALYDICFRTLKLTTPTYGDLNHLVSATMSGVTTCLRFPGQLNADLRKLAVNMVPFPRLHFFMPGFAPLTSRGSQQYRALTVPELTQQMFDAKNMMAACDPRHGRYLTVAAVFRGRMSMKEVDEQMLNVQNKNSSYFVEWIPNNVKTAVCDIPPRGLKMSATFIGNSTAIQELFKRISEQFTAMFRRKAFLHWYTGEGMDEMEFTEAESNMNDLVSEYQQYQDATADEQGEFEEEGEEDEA
Sequence of porcine brain tubulin (P02550 whole entry): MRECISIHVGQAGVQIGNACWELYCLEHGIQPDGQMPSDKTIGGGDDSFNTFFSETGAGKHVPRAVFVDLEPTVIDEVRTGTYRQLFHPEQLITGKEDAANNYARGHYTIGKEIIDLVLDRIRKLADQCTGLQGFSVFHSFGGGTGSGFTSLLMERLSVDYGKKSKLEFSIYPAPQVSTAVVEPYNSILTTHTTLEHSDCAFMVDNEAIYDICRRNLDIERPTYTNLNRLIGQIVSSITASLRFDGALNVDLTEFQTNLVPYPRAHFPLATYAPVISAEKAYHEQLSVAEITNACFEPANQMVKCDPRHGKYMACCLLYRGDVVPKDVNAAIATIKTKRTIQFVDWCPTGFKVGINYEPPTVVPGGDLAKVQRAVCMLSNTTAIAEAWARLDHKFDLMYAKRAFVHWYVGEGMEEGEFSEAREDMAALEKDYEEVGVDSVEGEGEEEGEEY
Description: To examine the biological mechanism of biotin conjugates, Deac-SS-Biotin (9) was evaluated for its effects on tubulin polymerisation (Figure 7).
Figure 7. The effect of Deac-SS-Biotin (9) on tubulin polymerisation. […] The reaction was monitored at 37 °C.
First, 96-well plate was incubated with […] of inhibitors in various concentrations at 37 °C for 1 min. Then […] of the tubulin reaction mix was added. The samples were mixed well, and tubulin assembly was monitored (emission wavelength of 420 nm; excitation wavelength pf 360 nm) at 1 min intervals for 90 min at 37 °C using a plate reader (FAS-Calibur, BD Biosciences, USA).

[9] = test system: cells over-expressing active legumain (M38L, HCT116); conditions: HCT116 vs HEK293, M4C, SW620; cited from earlier work

Row | Compound | IC50 [1] | IC50 [2] | IC50 [3] | IC50 [4] | further results
1 | 2-((2-((((S)-2,3,4,10-tetramethoxy-9-oxo-5,6,7,9-tetrahydrobenzo[a]heptalen-7-yl)carbamoyl)oxy)ethyl)disulfanyl)ethyl 5-((3aS,4S,6aR)-2-oxohexahydro-1H-thieno[3,4-d]imidazol-4-yl)pentanoate [Compound 9] | 0.108 ± 0.01 µM | 0.124 ± 0.011 µM | 0.085 ± 0.008 µM | 4.22 ± 0.102 µM | peak area and peak height (HPLC stability) [5]: nearly remained unchanged; Deac released ([6]; PBS pH 7.2–7.4, in the presence of 5, 10, and 20 μM DTT, within 8 h, 37 °C): more than 70%; Deac released ([6]; blank PBS (pH 7.2–7.4, without DTT), within 24 h, 37 °C): almost none; cell viability ([7]; A549, compound at 2-fold IC50, biotin 0.075 μM): 23.6%; cell viability ([7]; A549, compound at 2-fold IC50, biotin 0.60 μM): 68.9%; cell viability ([7]; A549, compound at 2-fold IC50, in the absence of biotin): 17.7%; anti-tubulin polymerisation activity after coincubation with DTT ([8]; compound at 5 µM and DTT at 10 µM): strong anti-tubulin polymerisation activity; inhibition activity on tubulin polymerisation ([8]; compound at 5 µM, without DTT): weak inhibition activity
2 | 2-((2-oxo-2–(2-(5-((3aS,4S,6aR)-2-oxohexahydro-1H-thieno[3,4-d]imidazol-4-yl)pentanoyl)hydrazinyl)ethyl)thio)-N-((S)-2,3,4,10-tetramethoxy-9-oxo-5,6,7,9-tetrahydrobenzo[a]heptalen-7-yl)acetamide [Compound 11c] | 2.17 ± 0.1 µM | 1.95 ± 0.071 µM | 1.31 ± 0.092 µM | 10.7 ± 0.2 µM | –
3 | 4-oxo-4–(2-(5-((3aS,4S,6aR)-2-oxohexahydro-1H-thieno[3,4-d]imidazol-4-yl)pentanoyl)hydrazinyl)-N-((S)-2,3,4,10-tetramethoxy-9-oxo-5,6,7,9-tetrahydrobenzo[a]heptalen-7-yl)butanamide [Compound 11a] | 3.5 ± 0.15 µM | 7.52 ± 0.12 µM | 6.52 ± 0.19 µM | > 20 µM | –
4 | 5-((3aS,4S,6aR)-2-oxohexahydro-1H-thieno[3,4-d]imidazol-4-yl)-N-((S)-2,3,4,10-tetramethoxy-9-oxo-5,6,7,9-tetrahydrobenzo[a]heptalen-7-yl)pentanamide [Compound 10] | 6.35 ± 0.11 µM | 4.9 ± 0.18 µM | 4.85 ± 0.13 µM | 15.8 ± 0.31 µM | Deac released ([6]; PBS pH 7.2–7.4, after 24 h incubation in the presence or absence of 20 μM DTT): < 1.0%
5 | 5-oxo-5–(2-(5-((3aS,4S,6aR)-2-oxohexahydro-1H-thieno[3,4-d]imidazol-4-yl)pentanoyl)hydrazinyl)-N-((S)-2,3,4,10-tetramethoxy-9-oxo-5,6,7,9-tetrahydrobenzo[a]heptalen-7-yl)pentanamide [11 b] | 6.94 ± 0.16 µM | 2.29 ± 0.09 µM | 2.23 ± 0.12 µM | 13.4 ± 0.18 µM | –
6 | 5: legumain-cleavable peptide (Suc-Ala-Ala-Asn-Val)-colchicine (Suc-AANV-colchicine) [Compound 5] | – | – | – | – | toxicity to cells over-expressing active legumain compared to cells expressing low levels of active or only prolegumain [9]: more toxic
7 | O=C(O)CCCC[C@@H]1SC[C@@H]2NC(=O)N[C@@H]21 [biotin, reference compound] | – | – | – | – | cytotoxicity alone ([7]; A549, biotin alone at various concentrations): no cytotoxicity

From paper PMC8725855 (Journal of Enzyme Inhibition and Medicinal Chemistry, 2021)
